# Values joined by “and” are separate entries in the source; they are usually repeats but may differ in a detail not shown here. Equal entries are not always repeated. Where two headings read alike, the source gives them in different places.
# Tests used:
# [1] = test system: M. globosa
# [2] = test system: M. globosa; conditions: cited from earlier work
# [3] = target: T1, M. globosa CYP51 (Malassezia globosa, UniProt A8Q3I7, A7V/E4L/G6A/I5L/L2A/Q3L/W8F); assay: biochemical; assay type: binding
# T1 sequence (A8Q3I7 whole entry L2A/Q3L/E4L/I5L/G6A/A7V/W8F): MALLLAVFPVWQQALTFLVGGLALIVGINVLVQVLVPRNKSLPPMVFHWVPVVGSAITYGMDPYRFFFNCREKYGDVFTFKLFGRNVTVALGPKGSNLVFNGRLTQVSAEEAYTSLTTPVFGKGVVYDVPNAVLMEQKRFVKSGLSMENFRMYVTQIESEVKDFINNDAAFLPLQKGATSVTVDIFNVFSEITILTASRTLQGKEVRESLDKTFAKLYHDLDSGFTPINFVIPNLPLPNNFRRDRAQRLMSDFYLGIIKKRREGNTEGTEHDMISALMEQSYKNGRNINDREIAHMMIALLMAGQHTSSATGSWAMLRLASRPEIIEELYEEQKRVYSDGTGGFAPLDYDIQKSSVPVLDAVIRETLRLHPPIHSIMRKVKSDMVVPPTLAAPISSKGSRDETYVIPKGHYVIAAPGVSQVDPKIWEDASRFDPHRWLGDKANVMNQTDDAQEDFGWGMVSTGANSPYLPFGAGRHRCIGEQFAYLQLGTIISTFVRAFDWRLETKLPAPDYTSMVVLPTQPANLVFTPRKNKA
# Description: (§1) Reduced carbon monoxide difference spectroscopy[46][47] and absolute spectra between 700 and 300 nm were used to determine cytochrome P450 concentrations. Substrate and azole binding studies were performed[31][48] using 2.5 mM stock sterol solutions in 40% (wt/vol) (2-hydroxypropyl)-β-cyclodextrin (HPCD), 4 mg ml^−1 solutions of fatty acids in dimethylformamide (DMF), and stock 0.05, 0.1 and 0.2 mg ml^−1 solutions of azole antifungal agents in dimethylsulfoxide (DMSO). Sterols were titrated against 5 μM CYP51, fatty acids were titrated against 4 μM CYP5218 and azole antifungal agents were titrated against 2 μM CYP51 and CYP5218. The absorbance difference spectrum between 500 and 350 nm was determined after each incremental addition of ligand with saturation curves constructed from ΔApeak-trough against ligand concentration. The dissociation constants (Kd) for sterols and fatty acids were determined by non-linear regression (Levenberg-Marquardt algorithm) using the Michaelis-Menten equation. The dissociation constants of the enzyme-azole complex were determined by non-linear regression (Levenberg-Marquardt algorithm) using a rearrangement of the Morrison equation for tight ligand binding. ProFit 6.1.12 (QuantumSoft, Zurich, Switzerland) was used for curve-fitting data. All ligand-binding studies were performed at 22 ± 2 °C and in triplicate. All spectral determinations were made using a Hitachi U-3310 UV/VIS spectrophotometer (San Jose, California).
# [4] = target: M. globosa CYP5218 (Malassezia globosa, UniProt A8QCD3, A3L/A5L/F6A/I7V/S4L/S8F); assay: biochemical; assay type: binding; conditions: for azole binding to CYP5218 (binding spectra): 2 μM CYP5218, result in words
# Description: as §1
# [5] = test system: M. globosa ATCC MYA-4612; assay: M. globosa MIC100 determination; assay type: cell-based, Malassezia globosa; conditions: for MIC: Malassezia globosa, 168 h, read-out: MIC100
# Description: M. globosa ATCC MYA-4612 was grown for 7 days at 30 °C in modified Dixon medium (3.6% malt extract, 2% desiccated ox-bile, 1% Tween 40, 0.6% peptone, 0.2% glycerol, 0.2% oleic acid, pH adjusted to 6 with HCl) until a culture density of 1.5 × 10^5 cells ml^−1 was obtained. Cells from 3 ml of stock culture were harvested, suspended in 1 ml of saline and used to inoculate 30 ml of fresh modified Dixon medium for use as M. globosa inoculums in MIC determinations. Stock azole concentrations of 1600, 800, 400, 200, 100, 50, 25, 12.5, 6.25, 3.125 and 0 μg ml^−1 were prepared in DMSO. These were diluted ten-fold with fresh modified Dixon media and 20 μl of the diluted azole solutions were then mixed with 180 μl of M. globosa inoculum in microtiter plate wells to yield final azole concentrations of 16, 8, 4, 2, 1, 0.5, 0.25, 0.125, 0.0625, 0.03125 and 0 μg ml^−1. The microtiter plates were incubated at 30 °C for 7 days and then read. Each azole MIC100 determination was performed in triplicate.
# [6] = target: T1, M. globosa CYP51; assay: biochemical
# Description: Sterol metabolites were recovered by extraction with ethyl acetate followed by derivatization with 0.1 ml N,O-bis(trimethylsilyl)trifluoroacetamide (BSTFA) : trimethylchlorosilane (TMCS) (99:1) and 0.3 ml anhydrous pyridine (2 h at 80 °C) prior to analysis by gas chromatography mass spectrometry (GC/MS)[53].
# [7] = target: C. albicans CYP51; set-up: method as in PMID 23826084; conditions: cited from earlier work
# [8] = target: H. sapiens CYP51; set-up: method as in PMID 23826084; conditions: cited from earlier work
# [9] = test system: M. globosa; assay: Sterol analysis of azole-treated M. globosa; assay type: cell-based, Malassezia globosa; conditions: 4 μg ml^−1 ketaminazole
# Description: Individual sterols were identified by reference to relative retention times, mass ions and fragmentation patterns. Sterol composition was calculated using peak areas.
smiles,measurement,setting,value
C=CC[C@@H]1/C=C(\C)C[C@H](C)C[C@H](OC)[C@H]2O[C@@](O)(C(=O)C(=O)N3CCCC[C@H]3C(=O)O[C@H](/C(C)=C/[C@@H]3CC[C@@H](O)[C@H](OC)C3)[C@H](C)[C@@H](O)CC1=O)[C@H](C)C[C@@H]2OC [FK-506],concentration above which cytotoxic towards M. globosa,[1],above 0.0625 μg ml^−1
OC(Cn1cncn1)(Cn1cncn1)c1ccc(F)cc1F [fluconazole],MIC values previously reported,[2],4 mg/L
same,Kd,[3],0.011 ± 0.004 µM
same,azole binding to CYP5218 (binding spectra),[4],did not bind
same,azole binding to CYP5218 (binding spectra),[4]; listed as Fluconazole,no reproducible binding spectra
same,MIC,"[5]; modified Dixon medium, 30 °C, 7 days",64 mg/L
same,IC50,"[6]; IC50, 0.5 μM CYP51, CYP51:AfCPR1 1:2, 50 μM lanosterol as substrate",0.206 µM and 0.2 µM
CC(=O)N1CCN(c2ccc(NCC3COC(Cn4ccnc4)(c4ccc(Cl)cc4Cl)O3)cc2)CC1 (centres unmarked) [ketaminazole],Kd,[7],0.043 µM
same,Kd,[8],0.731 µM
same,"sterol fraction (%) 4,4-dimethylzymosterol",[9],0.62%
same,sterol fraction (%) Eburicol,[9],14.63%
same,sterol fraction (%) Episterol,[9],0.63%
same,"sterol fraction (%) Ergosta-5,7-dienol",[9],13.85%
same,sterol fraction (%) Ergosta-7-enol,[9],5.00%
same,"sterol fraction (%) Ergosta-8,22-dienol",[9],5.35%
same,sterol fraction (%) Ergosta-8-enol,[9],0%
same,sterol fraction (%) Ergosterol,[9],54.64%
same,sterol fraction (%) Fecosterol,[9],0.54%
same,sterol fraction (%) Obtusifoliol,[9],3.52%
same,sterol fraction (%) Cholesterol,[9]; cholesterol assimilated from growth media,1.21%
same,Kd,"[3]; azole titrated against 2 μM CYP51, Morrison equation",0.003 ± 0.001 µM
same,azole binding to CYP5218 (binding spectra),[4],type II binding spectra
same,Kd,[4]; azole titrated against 2 μM CYP5218,~12 µM and ~11.7 µM
same,growth inhibition,[5]; 4 μg ml^−1,partial inhibition of growth
same,MIC,[5],8 mg/L
same,IC50,"[6]; 0.5 μM CYP51, CYP51:AfCPR1 1:2, 50 μM lanosterol as substrate",0.321 ± 0.042 µM
